From the NIST ThermoML archive (doi:10.1021/je300631s)

Columns and labels:
[1] = for surface tension liquid-gas: Maximal bubble pressure; for mass density: 101.33 kPa, Vibrating tube method
[2] = refractive index (Na D-line) (dimensionless); settings: 298.15 K; 101.33 kPa; Liquid; Standard Abbe refractometry
[3] = xn = mol fraction of the nth substance listed; settings: 298.15 K, 101 kPa, Liquid, Vibrating tube method

Cc1ccc(C)o1 [2,5-dimethylfuran]
[1]
Settings	surface tension liquid-gas [mN/m]
293.15 K	25.42
303.15 K	24.04
313.15 K	22.73
323.15 K	21.41
333.15 K	20.22
343.15 K	19.1
353.15 K	18.05
358.15 K	17.5

[1]
Settings	Normal boiling temperature, Liquid [°C]	mass density, 293.15 K [kg/m3]	mass density, 298.15 K [kg/m3]	mass density, 303.15 K [kg/m3]	mass density, 313.15 K [kg/m3]	mass density, 323.15 K [kg/m3]	mass density, 333.15 K [kg/m3]	mass density, 343.15 K [kg/m3]	mass density, 353.15 K [kg/m3]	mass density, 358.15 K [kg/m3]
Ebulliometric method (Recirculating still)	93.68	–	–	–	–	–	–	–	–	–
Liquid	–	901.18	895.7	890.37	879.43	868.36	857.1	845.67	834.01	828.13

[1], Liquid, Ebulliometric method (Recirculating still)
Settings	vapor or sublimation pressure [kPa]
331.46 K	30.01
335.51 K	35.01
339.09 K	40.01
342.32 K	45.01
345.26 K	50.01
348 K	55.01
350.53 K	60.01
352.9 K	65.01
355.13 K	70.01
357.24 K	75.01
359.24 K	80.01
361.13 K	85.01
362.95 K	90.01
364.69 K	95.01
366.79 K	101.33

Settings	refractive index
[2]	1.4404

Cc1ccc(C)o1 [2,5-dimethylfuran] + CCCCCC
[3]
Settings	mass density [kg/m3]
x2 = 0	895.7
x2 = 0.058	878.43
x2 = 0.103	865.07
x2 = 0.169	846.48
x2 = 0.211	834.86
x2 = 0.284	815.33
x2 = 0.326	804.35
x2 = 0.373	792.42
x2 = 0.425	779.22
x2 = 0.474	767.35
x2 = 0.523	755.53
x2 = 0.577	743.04
x2 = 0.671	722.12
x2 = 0.73	709.38
x2 = 0.854	683.63
x2 = 0.915	671.56
x2 = 0.979	659.09

CCCCCC [hexane] + Cc1ccc(C)o1
Settings	mass density [kg/m3]
[3], x1 = 1	655.17
